{"source": "patent US20150265644A1", "about": "“THERAPEUTIC METHODS AND COMPOSITIONS FOR TREATING DIABETES UTILIZING DITERPENOID COMPOUNDS” (Orient Europharma Co., Ltd., priority 2014, published 2015)", "key": {"[1]": {"tested_on": "human hepatocellular carcinoma cell line Hep3B", "assay": "Glycogen content assay in Hep3B cells", "type": "cell-based", "conditions": "30 minutes", "experimental": "The C2C12 skeletal muscle cells were cultured in Dulbecco's modified Eagle's medium (DMEM; Gibco/Invitrogen, Carlsbad, Calif.), and the human hepatocellular carcinoma cell line, Hl-ep3B, was cultured in Roswell Park Memorial Institute medium 1640 (RPMI 1640 medium; Gibco/Invitrogen, Carlsbad, Calif.). Cells were cultured at 37° C. in the humidified incubator supplied with 5% CO2. Culture mediums were supplemented with 4.5 mgmL^−1 glucose, penicillin 100 IUmL^−1, streptomycin 100 μgmL^−1 and 10% fetal bovine serum (Gibco/Invitrogen, Carlsbad, Calif.). Only C2C12 cells were then switched to 2% horse serum for 3 days after reaching the 70% confluence. Myotubes formation was achieved after 4 days of incubation, and the cells were used for subsequent experiments. Culture mediums were replaced by serum free DMEM or RPMI for 24 h before experiments (see e.g., procedure described in Sultan et al., 2006).\nC2C12 and Hep3B cells were treated with 1 nM insulin, 100 μM metformin, and the assigned concentration of borapetoside A for 30 minutes. To develop the insulin resistance state of cells, C2C12 cells were incubated with IL-6 at 20 ngmL^−1 for 1 hour. Later, the cells were treated with 1 nM insulin, 100 μM metformin, and the assigned concentration of borapetoside A for 30 minutes. After the assigned treatment, cells were washed twice with phosphate buffered saline (PBS). Glycogen content was measured as previously described, with some modifications (see e.g., Savage et al., 2008). The protein concentrations of the cell lysates were determined by using Pierce BCA Protein Assay Kit (Thermo-Scientific, Rockford, Ill.). The glycogen content of each sample was normalized by total protein."}, "[2]": {"assay": "Plasma insulin level before and after treatment in mice", "type": "in vivo", "experimental": "The 4-week-old male ICR mice were purchased from the Animal Center of the College of Medicine, National Taiwan University (Taipei, Taiwan) with delicate humane care. This animal study was conducted by following the University ethical guidelines and the ‘Guide for the Care and Use of Laboratory Animals’ published by the US National Institutes of Health (NIH publication no. 85-23, revised 1996). The animal experiments were approved by the Institutional Animal Care and Use Committee (IACUC) of the National Taiwan University (IACUC No. 20110073). Animals were housed in a room at the constant temperature, 22±1° C., with 12 hours light and dark cycles.\nAfter three days of acclimatization, the mice had free access to a standard rodent chow (normal mice), a standard rodent chow after single 250 mgkg^−1 streptozotocin (STZ) intraperitoneal injection (TIDM mice), and a fat-rich chow diet and fructose-sweetened water (T2DM mice) for 4 weeks. The induction of Type 1 DM was assessed and confirmed when the mice had plasma glucose levels ≧350 mgdL^−1, accompanied with polyuria, hyperphagia and decreased body weight. The induction Type 2 DM in the mice was assessed by measuring fasting plasma glucose levels and confirmed when plasma glucose level was ≧150 mgdL^−1 after the 4-week induction. The animals were assigned randomly into three groups, with seven animals in each group. In group I, the mice were treated with vehicle, 2% DMSO in normal saline, as the negative control. In group II, the mice were intraperitoneally treated with borapetoside A (0.1-10 mgkg^−1). In […], the mice received intraperitoneally metformin (300 mgkg^−1; Sigma Chemical Co., St. Louis, Mo., U.S.A.) or insulin (0.5 IUkg^−1; Insulin Actrapid® HM; Novo Nordisk, Denmark). In the acute study, mice under anesthesia received a single intraperitoneal administration of borapetoside A, negative control, or positive control. In the subacute study, mice received intraperitoneal administrations of borapetoside A, vehicle, or insulin twice a day for seven days.\nBlood samples were collected from the orbital vascular plexus of the mice under anesthesia. Blood samples were then centrifuged at 13000 rpm for 5 min, and the plasma samples were collected and kept on ice prior to the assay. The plasma glucose concentration was measured by Glucose Kit Reagent (Biosystems S.A., Barcelona, Spain) following the manufacturer's instructions, and the insulin levels were estimated using mouse insulin ELISA kit (Mercodia AB, Uppsala, Sweden)."}, "[3]": {"tested_on": "soleus muscle", "assay": "Glycogen content in soleus muscle in vivo", "set-up": "species or system mice", "conditions": "10 mgkg^−1 i.p., 60 minutes", "experimental": "The mice were injected with borapetoside A (10 mgkg^−1, interperitoneal) for 60 minutes or insulin (0.5 IUkg^−1, interperitoneal) for 30 minutes. After the treatment, the anesthetic mice were sacrificed by cervical dislocation to collect the soleus muscle and liver. About 40 mg of each sample was dissolved in 1 mol/L KOH at 75° C. for 30 min. The dissolved homogenate was neutralized by glacial acetic acid and then incubated overnight in acetate buffer (0.3 mol/L sodium acetate, pH 4.8) containing amyloglucosidase (Sigma, St. Louis, Mo.). The mixture was then neutralized with 1 mol/L NaOH to stop the reaction. The glycogen contents in the tissue samples were determined as μg of glucose per mg of tissue (wet weight)."}}, "data": [{"smiles": "C[C@@]12C[C@@H](c3ccoc3)OC(=O)[C@@H]1C[C@@H]1OC(=O)[C@@]3(O)[C@@H](O[C@@H]4O[C@H](CO)[C@@H](O)[C@H](O)[C@H]4O)CC[C@@H]2[C@@]13C", "note": "[borapetoside A]", "values": [{"measurement": "fold increase of glycogen content", "setting": "[1]; 10^−5 mol/L", "result": "1.54±0.11", "unit": "fold"}, {"measurement": "fold increase of glycogen content", "setting": "[1]; 10^−6 mol/L", "result": "1.39±0.12", "unit": "fold"}, {"measurement": "fold increase of glycogen content", "setting": "[1]; 10^−7 mol/L", "result": "1.46±0.05", "unit": "fold"}, {"measurement": "Plasma insulin", "setting": "[2]; T1DM mice, 0.1 mg kg^−1, after-treatment", "result": "22.7 ± 0.2", "unit": "pmol/L"}, {"measurement": "Plasma insulin", "setting": "[2]; T1DM mice, 0.1 mg kg^−1, before-treatment", "result": "22.9 ± 0.1", "unit": "pmol/L"}, {"measurement": "Plasma insulin", "setting": "[2]; T1DM mice, 0.3 mg kg^−1, after-treatment", "result": "22.7 ± 0.3", "unit": "pmol/L"}, {"measurement": "Plasma insulin", "setting": "[2]; T1DM mice, 0.3 mg kg^−1, before-treatment", "result": "22.9 ± 0.1", "unit": "pmol/L"}, {"measurement": "Plasma insulin", "setting": "[2]; T1DM mice, 1 mg kg^−1, after-treatment", "result": "23.0 ± 0.2", "unit": "pmol/L"}, {"measurement": "Plasma insulin", "setting": "[2]; T1DM mice, 1 mg kg^−1, before-treatment", "result": "23.1 ± 0.2", "unit": "pmol/L"}, {"measurement": "Plasma insulin", "setting": "[2]; T1DM mice, 3 mg kg^−1, after-treatment", "result": "23.0 ± 0.0", "unit": "pmol/L"}, {"measurement": "Plasma insulin", "setting": "[2]; T1DM mice, 3 mg kg^−1, before-treatment", "result": "23.1 ± 0.2", "unit": "pmol/L"}, {"measurement": "Plasma insulin", "setting": "[2]; T1DM mice, 10 mg kg^−1, after-treatment", "result": "23.0 ± 0.1", "unit": "pmol/L"}, {"measurement": "Plasma insulin", "setting": "[2]; T1DM mice, 10 mg kg^−1, before-treatment", "result": "23.1 ± 0.1", "unit": "pmol/L"}, {"measurement": "Plasma insulin", "setting": "[2]; T2DM mice, 0.1 mg kg^−1, after-treatment", "result": "134.5 ± 9.3", "unit": "pmol/L"}, {"measurement": "Plasma insulin", "setting": "[2]; T2DM mice, 0.1 mg kg^−1, before-treatment", "result": "140.5 ± 4.1", "unit": "pmol/L"}, {"measurement": "Plasma insulin", "setting": "[2]; T2DM mice, 0.3 mg kg^−1, after-treatment", "result": "149.0 ± 9.5", "unit": "pmol/L"}, {"measurement": "Plasma insulin", "setting": "[2]; T2DM mice, 0.3 mg kg^−1, before-treatment", "result": "133.0 ± 4.2", "unit": "pmol/L"}, {"measurement": "Plasma insulin", "setting": "[2]; T2DM mice, 1 mg kg^−1, after-treatment", "result": "123.7 ± 9.6", "unit": "pmol/L"}, {"measurement": "Plasma insulin", "setting": "[2]; T2DM mice, 1 mg kg^−1, before-treatment", "result": "126.8 ± 5.7", "unit": "pmol/L"}, {"measurement": "Plasma insulin", "setting": "[2]; T2DM mice, 3 mg kg^−1, after-treatment", "result": "184.3 ± 14.6", "unit": "pmol/L"}, {"measurement": "Plasma insulin", "setting": "[2]; T2DM mice, 3 mg kg^−1, before-treatment", "result": "138.3 ± 3.6", "unit": "pmol/L"}, {"measurement": "Plasma insulin", "setting": "[2]; T2DM mice, 10 mg kg^−1, after-treatment", "result": "205.3 ± 22.2", "unit": "pmol/L"}, {"measurement": "Plasma insulin", "setting": "[2]; T2DM mice, 10 mg kg^−1, before-treatment", "result": "134.9 ± 3.5", "unit": "pmol/L"}, {"measurement": "Plasma insulin", "setting": "[2]; normal mice, 0.1 mg kg^−1, after-treatment", "result": "68.3 ± 4.4", "unit": "pmol/L"}, {"measurement": "Plasma insulin", "setting": "[2]; normal mice, 0.1 mg kg^−1, before-treatment", "result": "61.0 ± 4.6", "unit": "pmol/L"}, {"measurement": "Plasma insulin", "setting": "[2]; normal mice, 0.3 mg kg^−1, after-treatment", "result": "129.4 ± 22.0", "unit": "pmol/L"}, {"measurement": "Plasma insulin", "setting": "[2]; normal mice, 0.3 mg kg^−1, before-treatment", "result": "63.4 ± 3.9", "unit": "pmol/L"}, {"measurement": "Plasma insulin", "setting": "[2]; normal mice, 1 mg kg^−1, after-treatment", "result": "118.8 ± 10.1", "unit": "pmol/L"}, {"measurement": "Plasma insulin", "setting": "[2]; normal mice, 1 mg kg^−1, before-treatment", "result": "66.1 ± 5.4", "unit": "pmol/L"}, {"measurement": "Plasma insulin", "setting": "[2]; normal mice, 3 mg kg^−1, after-treatment", "result": "121.2 ± 14.2", "unit": "pmol/L"}, {"measurement": "Plasma insulin", "setting": "[2]; normal mice, 3 mg kg^−1, before-treatment", "result": "64.4 ± 3.6", "unit": "pmol/L"}, {"measurement": "Plasma insulin", "setting": "[2]; normal mice, 10 mg kg^−1, after-treatment", "result": "108.2 ± 2.9", "unit": "pmol/L"}, {"measurement": "Plasma insulin", "setting": "[2]; normal mice, 10 mg kg^−1, before-treatment", "result": "68.9 ± 1.3", "unit": "pmol/L"}, {"measurement": "glycogen content in soleus muscle, % of vehicle control", "setting": "[3]; mice with type 1 DM", "result": "155.6±8.6", "unit": "%"}, {"measurement": "glycogen content in soleus muscle, % of vehicle control", "setting": "[3]; mice with type 2 DM", "result": "171.8±12.0", "unit": "%"}, {"measurement": "glycogen content in soleus muscle, % of vehicle control", "setting": "[3]; normal mice", "result": "116.5±4.2", "unit": "%"}]}]}
